Test results from patent US11844801B2, “Oral compositions of MK2 pathway inhibitor for treatment of immune conditions” (priority 2020, dated 2023).
In brackets after ≈: the same amount, converted by molar mass. Several values for one entry are separate records, joined by “and”; a condition that tells them apart may be missing. Identical values can stand only once. Like-named read-outs stand apart in the source and are kept apart here.

Tests used:
IL-1β = test: Ex vivo LPS-stimulated IL-1β in blood of dosed healthy subjects, PK/PD inhibitory Emax model; set-up: species or system human
Experimental: Blood samples of 10 mL were collected for PD analysis. For the SAD cohorts, blood was collected before dosing and 1, 12, and 24 hours after dosing. For the MAD cohorts, on day 1 blood was collected before the morning dose and 4 and 12 hours after the morning dose (prior to the evening dose); on day 7, blood was collected before the morning dose and 4 and 12 hours after the morning dose.
Additional details of the assays for analyzing p-HSP27 and cytokines are included in the Supplementary Information.
Pharmacodynamics. PD data analysis was conducted using Microsoft Excel 2010 (Microsoft, Redmond, WA), Meso Scale Discovery Workbench® analysis software (Rockville, MD), and Phoenix WinNonlin, version 8.2.
Sample Preparation for Cytokine Analysis. For each sample, 180 μL aliquots were transferred into 7 wells of a round bottom 96 well tissue culture polystyrene low evaporation plate. […] No outer wells on the plates were used and all wells surrounding the samples contained 200 μL of phosphate buffered saline.
DMSO was added to all wells in groups ‘A’ and ‘C’ to a final concentration of 0.1% ([…] of a 2% DMSO solution in DMEM containing 10% FBS and 1% penicillin/streptomycin/glutamine). […] Samples were mixed gently for 30 seconds on a plate shaker using pin tools, then placed in an incubator at 37° C./5% CO2 for 1 hour.
Samples in groups ‘A’ and ‘B’ were stimulated with lipopolysaccharide at a final concentration of 100 ng/mL. A stock solution of lipopolysaccharide at 1 mg/mL in DMEM containing 10% FBS and 1% penicillin/streptomycin was diluted to […] in DMEM containing 10% FBS and 1% penicillin/streptomycin, and […] of this working solution was added per well of blood for all samples in groups ‘A’ and ‘B’. […] of DMEM containing 10% FBS only was added per well of blood for all samples in group ‘C’ (unstimulated samples). Samples were mixed gently for 30 seconds on a plate shaker using pin tools, then placed in an incubator at 37° C./5% CO2 for 5 hours.
Following the incubation, the plates were removed from the incubator and sealed with adhesive clear plate seals. The plates were then centrifuged for 10 minutes at 1800×g at room temperature. […] of plasma was removed from each well and transferred to a 96-well polypropylene round bottom master plate, which was then sealed and frozen at −80° C. until all samples from the respective cohort were generated. Once all samples from a given cohort were generated, the samples were analyzed for cytokine (TNF-α, IL-1b, IL-6, and IL-8) production using Meso Scale Discovery Technology.
Analysis of Cytokine Levels Using Meso Scale Discovery Technology. All lipopolysaccharide plasma samples were analyzed for cytokine production with a V-Plex Human Proinflammatory Panel II (4-Plex) Kit from Meso Scale Discovery (Rockville, MD). The master plates containing the plasma samples were thawed on ice, and a daughter plate consisting of a 25-fold dilution of each plasma sample (3 μL of plasma plus 72 μL of Meso Scale Discovery Diluent 2) was generated for each master plate. The diluted plasma samples from the daughter plates were used in the cytokine analysis. The Meso Scale Discovery 4-plex plates were washed 3 times with 150 μL/well of wash buffer (1×KPL phosphate buffered saline with Tween 20 from SeraCare [Milford, MA]). Prepared calibrators and the samples from the daughter plates were added to the washed Meso Scale Discovery 4-plex plates at 50 μL/well. The 4-plex plates were sealed and shaken overnight at 4° C.
After the overnight incubation, the samples were removed by decanting. The 4-plex plates were then washed 3 times with 150 μL/well of wash buffer. […]

[1] = tested on: endogenous cytokines (TNF-α, IL-6, IL-8, MIP1β, IL-1RA); test: Phase 2a RA study: endogenous plasma cytokines; assay type: in vivo, human; conditions: 50 mg BID
Experimental: Pharmacodynamics. […] For the endogenous cytokine levels (e.g., TNF-α, IL-1β, IL-6, IL-8, IFNγ, IL-17, IL-18, IL-10, IL-1α, and IL-1RA), 1 mL of serum will be drawn at each identified time point. […] Samples were evaluated at trough drug levels through day 84 and the last point is near Cmax following the final dose on day 84. The horizontal line ( ? ) in FIG. 19A depicts TNF-α levels in blood from normal volunteer subjects that were evaluated in the same assay. […] The horizontal line ( ? ) in FIG. 19B represents IL-1RA levels in healthy subjects. […] Plasma levels of three proinflammatory cytokines (TNF-α (FIG. 20A), IL-6 (FIG. 20C), IL-8 (FIG. 20B)), from a 13-plex tested are shown in this Figure, along with the chemokine MIP1β (FIG. 20D). The data are expressed as median % change relative to pre-dosing for drug treated patients. […] The horizontal line ( ? ) describes cytokine/chemokine level in plasma from normal healthy volunteer subjects.

[2] = tested on: TNF-α, IL-1β, IL-6 and IL-8; test: R848 (TLR7/TLR8) stimulated cytokines and chemokines in human whole blood; assay type: cell-based; conditions: 5 h, R848 0.5 μg/mL, five hours
Experimental: Human whole blood assays were performed as described above with the exceptions listed below. […] Compounds were serially diluted in 100% DMSO (Sigma-Aldrich, D2650) followed by a 10× dilution into RPMI (Gibco, 11875). After the one-hour incubation with the compounds or vehicle, 2 μL of R848 (InvivoGen, tlrl-r848) in RPMI (Gibco, 11875) was added for a final concentration of 0.5 μg/mL to each well except for the no stimulus wells. After five hours of incubation with R848, plasma was harvested and assayed for TNF-α, IL-1β, IL-6 and IL-8 using Meso Scale Discovery Technology V-plex human cytokine kits according to the kit protocol.

[3] = 13-week oral administration non-clinical safety study, mini-pig; assay type: in vivo; conditions: for Cmax / AUC(0-t): 60 mg/kg/day oral; for AUC(0-t): read-out: AUC0-24
Experimental: Study Design. […] Rats were administered 0 (vehicle), 3, 10 and 30 mg/kg/day, and Mini-pigs were administered 0 (vehicle) 10, 30 and 60 mg/kg/day

TNF-α = test: IL-1β stimulated TNF-α production in human whole blood; assay type: cell-based
Experimental: Compounds were serially diluted in 100% DMSO (Sigma-Aldrich, D2650) followed by a 10× dilution into RPMI (Gibco, 11875). After the one-hour incubation with the compounds or vehicle, 2 μL of IL-1β (R&D, 201-LB-010) in RPMI (Gibco, 11875) was added for a final concentration of 0.5 μg/mL to each well except for the no stimulus wells. […]

[4] = female, minipig, in vivo, study day 90, females
[5] = male, minipig, in vivo, study day 90, males

For `Cc1cnc(-c2ccnc(C(C)(C)O)n2)cc1-n1c(C)cc(OCc2ncc(F)cc2F)c(Cl)c1=O` (single isomer, unassigned) [ATI-450, 3-chloro-4-((3,5-difluoropyridin-2-yl)methoxy)-2′-(2-(2-hydroxypropan-2-yl)pyrimidin-4-yl)-5′,6-dimethyl-2H-[1,4′-bipyridin]-2-one], the “IL-1β inhibition versus baseline” value (IL-1β; 50 mg BID MAD cohort) was no more than 83.0%, the “Cmax (Multiple of IC80)” value (IL-1β; 50 mg BID, day 7) was 5.4x and the “Ctrough (Multiple of IC80)” value (IL-1β; 50 mg BID, day 7) was 2.2x. The IC80 (IL-1β; Homo sapiens, calculated from IC50, combined SAD and MAD data, read-out: IC80, plasma concentration at 80% of maximal inhibition) was 0.0408 mg/L, the IC50 (IL-1β; Homo sapiens, inhibitory Emax model, combined SAD and MAD data, read-out: IC50, plasma concentration at half maximal inhibition) was 0.0102 mg/L and the “IC80, plasma concentration at 80% of maximal inhibition” value (IL-1β; calculated from IC50, combined SAD and MAD data) was 0.0408 mg/L. For the same compound, the “Imax, maximum percent inhibition” value (IL-1β; inhibitory Emax model) was 74% and 74.3%, the “median concentrations of endogenous TNF-α, IL-6, IL-8, and MIP1β” value ([1]; 12-week period) was “marked and sustained inhibition” and the “endogenous plasma IL-1RA” value ([1]; 12 weeks) was “not impacted by ATI-450”. For the same compound, the “endogenous plasma IL-6, IL-8, and MIP1β” value ([1]; 12 weeks) was “reduced at week 4 and this reduction was maintained through the 12 weeks”, the “endogenous plasma TNF-α” value ([1]; trough) was “rapidly reduced by 4 weeks of dosing” and the IC50 [2] was roughly 0.1 µM. For the same compound, the mortality ([3]; 13-week oral, up to 60 mg/kg/day) was “No study drug-related mortality was observed”, the Cmax [3, 4] was 2.36 µg/mL and the AUC(0-t) [3, 4] was 22.6 µg·h/mL. The Cmax [3, 5] was 1.67 µg/mL, the AUC(0-t) [3, 5] was 14.4 µg·h/mL and the “non-adverse findings, haematology” value ([3]; males at ≥10 mg/kg/day and females at 60 mg/kg/day) was “Slightly increased neutrophil, lymphocyte and platelet counts”. For the same compound, the NOAEL at 13 weeks ([3]; minipig, in vivo, 13-week oral, read-out: no-observed adverse effect level (NOAEL)) was 60 mg/kg/day, the IC50 (TNF-α; Human Whole Blood, IL-1β, 10 ng/mL, 5 hr) was 0.0122 ± 0.004 µM and the IC80 (TNF-α; human whole blood) was 0.031 ± 0.006 mg/L (≈ 0.0603 µM).
